Converted amounts (≈) assume the structure as drawn.
Tests used:
Enterococcus sp. = experiment: in vitro antibacterial evaluation, MIC by broth dilution; format: cell-based; conditions: broth dilution, 18 hours at 35° C.
Outline: (§1)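 Broth dilution per NCCLS M7-A2 in Mueller-Hinton II medium, inoculum 5×10^5 CFU/mL, antibiotic range 64-0.06 μg/mL. MIC taken as lowest concentration inhibiting growth; Gram-positive panel includes recent clinical isolates resistant to methicillin, penicillin and/or vancomycin.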

Staphylococcus sp. = experiment: as above; format: cell-based; conditions: broth dilution, 18 hours at 35° C.
Outline: as §1

Streptococcus sp. = experiment: as above; format: cell-based; conditions: broth dilution, 18 hours at 35° C.
Outline: as §1

[1] = system: Staphylococcus aureus-SMITH (GC 4543); experiment: acute lethal infection in mice; format: in vivo; conditions: acute lethal infection, female CD-1 mice, intraperitoneal challenge, intravenous 30 min. after infection, 7 day survival
Outline: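 Protocol: bacteria suspended in trypticase soy broth or hog gastric mucin injected ip into female CD-1 mice at a level killing untreated controls in 24-48 hr; compound given iv in saline or 5% dextrose 30 min post-challenge; five mice per dose; ED50 derived from pooled 7 day survival of three runs.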

[2] = anatomic pathology (histopathology of heart and kidney) in mice; format: in vivo; conditions: CD-1 mice, 20 mg/kg intravenously daily for 9 days, necropsy day 10, microscopic histopathology
Method: Samples of tissues from necropsied mice were formalin-fixed, paraffin-embedded, sectioned, stained with hematoxylin and eosin, and examined microscopically. Histopathologic findings were recorded. These findings were subjectively graded on a scale corresponding to slight, mild, moderate, marked and severe as compared to untreated controls.

Escherichia coli = experiment: in vitro antibacterial evaluation, MIC by broth dilution; format: cell-based; conditions: 18 hours at 35° C.

CC(C1CCCCC1)C1NC(=O)CNC(=O)C(CO)NC(=O)C(C(O)C2CNC(=N)N2C2OC(CO)C(O)C(O)C2O)NC(=O)C(C(O)C2CNC(=N)N2)NC(=O)C(Cc2ccc(OC3OC(CO)C(OC4OC5COC6(OC5C(O)C4O)C4CC5CC(C4)CC6C5)C(O)C3O)cc2)NC1=O (stereo not drawn) [Example 221, Cyclo[3-cyclohexyl-2-aminobutanoyl-O-[4-O-[4,6-O-(2-adamantylidene)hexopyranosyl]hexopyranosyl]tyrosyl-3-(2-iminoimidazolidin-4-yl)seryl-3-(3-hexopyranosyl-2-iminoimidazolidin-4-yl)serylserylglycyl]]
MIC Enterococcus avium (GC 4558) (Enterococcus sp.): 2 mg/L (≈ 1.4 µM) | MIC Enterococcus faecalis (ATCC 29212) (Enterococcus sp.): 2 mg/L (≈ 1.4 µM) | MIC Enterococcus faecalis (GC 2242) (Enterococcus sp.): 2 mg/L (≈ 1.4 µM) | MIC Enterococcus faecalis (GC 2691) (Enterococcus sp.): 2 mg/L (≈ 1.4 µM) | MIC Enterococcus faecalis (GC 3059) (Enterococcus sp.): 1 mg/L (≈ 0.698 µM) | MIC Enterococcus faecalis (GC 4552) (Enterococcus sp.): 2 mg/L (≈ 1.4 µM) | MIC Enterococcus faecalis (GC 4553) (Enterococcus sp.): 2 mg/L (≈ 1.4 µM) | MIC Enterococcus faecalis (GC 4554) (Enterococcus sp.): 2 mg/L (≈ 1.4 µM) | MIC Enterococcus faecalis (GC 6189) (Enterococcus sp.): 1 mg/L (≈ 0.698 µM) | MIC Enterococcus faecium (GC 2243) (Enterococcus sp.): 2 mg/L (≈ 1.4 µM) | MIC Enterococcus faecium (GC 4556) (Enterococcus sp.): 2 mg/L (≈ 1.4 µM) | MIC Enterococcus faecium (GC 4557) (Enterococcus sp.): 1 mg/L (≈ 0.698 µM) | MIC Enterococcus faecalis (ATCC 29212) (Enterococcus sp.; inoculum 5×10^5 CFU/mL, strain ATCC 29212): 2 mg/L (≈ 1.4 µM) | MIC Enterococcus faecalis (GC 2242) (Enterococcus sp.; inoculum 5×10^5 CFU/mL, strain GC 2242): 2 mg/L (≈ 1.4 µM) | MIC Enterococcus faecium (GC 2243) (Enterococcus sp.; inoculum 5×10^5 CFU/mL, strain GC 2243): 2 mg/L (≈ 1.4 µM) | MIC Enterococcus faecalis (GC 2691) (Enterococcus sp.; inoculum 5×10^5 CFU/mL, strain GC 2691): 2 mg/L (≈ 1.4 µM) | MIC Enterococcus faecalis (GC 3059) (Enterococcus sp.; inoculum 5×10^5 CFU/mL, strain GC 3059): 1 mg/L (≈ 0.698 µM) | MIC Enterococcus faecalis (GC 4552) (Enterococcus sp.; inoculum 5×10^5 CFU/mL, strain GC 4552): 2 mg/L (≈ 1.4 µM) | MIC Enterococcus faecalis (GC 4553) (Enterococcus sp.; inoculum 5×10^5 CFU/mL, strain GC 4553): 2 mg/L (≈ 1.4 µM) | MIC Enterococcus faecalis (GC 4554) (Enterococcus sp.; inoculum 5×10^5 CFU/mL, strain GC 4554): 2 mg/L (≈ 1.4 µM) | MIC Enterococcus faecium (GC 4556) (Enterococcus sp.; inoculum 5×10^5 CFU/mL, strain GC 4556): 2 mg/L (≈ 1.4 µM) | MIC Enterococcus faecium (GC 4557) (Enterococcus sp.; inoculum 5×10^5 CFU/mL, strain GC 4557): 1 mg/L (≈ 0.698 µM) | MIC Enterococcus avium (GC 4558) (Enterococcus sp.; inoculum 5×10^5 CFU/mL, strain GC 4558): 2 mg/L (≈ 1.4 µM) | MIC Enterococcus faecalis (GC 6189) (Enterococcus sp.; inoculum 5×10^5 CFU/mL, strain GC 6189): 1 mg/L (≈ 0.698 µM) | MIC Staphylococcus aureus (ATCC 29213) (Staphylococcus sp.; strain ATCC 29213): 1 mg/L (≈ 0.698 µM) | MIC Staphylococcus aureus (GC 1131) (Staphylococcus sp.; strain GC 1131): 2 mg/L (≈ 1.4 µM) | MIC Staphylococcus aureus (GC 3051) (Staphylococcus sp.; strain GC 3051): 2 mg/L (≈ 1.4 µM) | MIC Staphylococcus aureus (GC 3053) (Staphylococcus sp.; strain GC 3053): 1 mg/L (≈ 0.698 µM) | MIC Staphylococcus aureus (GC 4541) (Staphylococcus sp.; strain GC 4541): 2 mg/L (≈ 1.4 µM) | MIC Staphylococcus aureus (GC 4542) (Staphylococcus sp.; strain GC 4542): 2 mg/L (≈ 1.4 µM) | MIC Staphylococcus aureus-SMITH (GC 4543) (Staphylococcus sp.; strain GC 4543): 2 mg/L (≈ 1.4 µM) | MIC Staphylococcus aureus (GC 4544) (Staphylococcus sp.; strain GC 4544): 2 mg/L (≈ 1.4 µM) | MIC Staphylococcus aureus (GC 4545) (Staphylococcus sp.; strain GC 4545): 2 mg/L (≈ 1.4 µM) | MIC Staphylococcus haemolyticus (GC 4546) (Staphylococcus sp.; strain GC 4546): 2 mg/L (≈ 1.4 µM) | MIC Coagulase Negative Staphylococcus (GC 4547) (Staphylococcus sp.; strain GC 4547): 2 mg/L (≈ 1.4 µM) | MIC Coagulase Negative Staphylococcus (GC 4548) (Staphylococcus sp.; strain GC 4548): 1 mg/L (≈ 0.698 µM) | MIC Coagulase Negative Staphylococcus (GC 4549) (Staphylococcus sp.; strain GC 4549): 1 mg/L (≈ 0.698 µM) | MIC Coagulase Negative Staphylococcus (GC 4551) (Staphylococcus sp.; strain GC 4551): 2 mg/L (≈ 1.4 µM) | MIC Streptococcus agalactiae (GC 4564) (Streptococcus sp.): <0.12 mg/L | MIC Streptococcus pneumoniae (ATCC 6301) (Streptococcus sp.): <0.12 mg/L | MIC Streptococcus pneumoniae (GC 1894) (Streptococcus sp.): <0.12 mg/L | MIC Streptococcus pneumoniae (GC 4565) (Streptococcus sp.): <0.12 mg/L | MIC Streptococcus pyogenes (GC 4563) (Streptococcus sp.): <0.12 mg/L | MIC Streptococcus pneumoniae (ATCC 6301) (Streptococcus sp.; inoculum 5×10^5 CFU/mL, strain ATCC 6301): <0.12 mg/L | MIC Streptococcus pneumoniae (GC 1894) (Streptococcus sp.; inoculum 5×10^5 CFU/mL, strain GC 1894): <0.12 mg/L | MIC Streptococcus pyogenes (GC 4563) (Streptococcus sp.; inoculum 5×10^5 CFU/mL, strain GC 4563): <0.12 mg/L | MIC Streptococcus agalactiae (GC 4564) (Streptococcus sp.; inoculum 5×10^5 CFU/mL, strain GC 4564): <0.12 mg/L | MIC Streptococcus pneumoniae (GC 4565) (Streptococcus sp.; inoculum 5×10^5 CFU/mL, strain GC 4565): <0.12 mg/L | median effective dose (ED50), Staphylococcus aureus-SMITH (GC 4543) [1]: 0.03 mg/kg | Anatomical Pathology (Day 10), Heart [2]: 0 | Anatomical Pathology (Day 10), Kidney [2]: 0 | MIC Escherichia coli (ATCC 25922) (Escherichia coli): 64 mg/L (≈ 44.6 µM) | MIC Escherichia coli (GC 4559) (Escherichia coli): 32 mg/L (≈ 22.3 µM) | MIC Escherichia coli (GC 4560) (Escherichia coli): 2 mg/L (≈ 1.4 µM)

From patent US6914045B2, “Glycopeptide antibiotics” (Wyeth Holdings Corporation, priority 2001, dated 2005)
